The record followed here is patent US20110166121A1 (LG LIFE SCIENCES LTD., priority 2008, published 2011).

In the assay the target is T1, Human P2Y12 receptor (Homo sapiens, UniProt Q9H244).
T1 construct: expressed in transfected cells; host or cells: HEK cells
Briefly: Human P2Y12 receptor cell membrane binding assay with [3H] 2-Mes-ADP. The conditions noted are these: 1 nM [3H] 2-Mes-ADP; for pIC50: membranes of HEK cells expressing P2Y12 receptor, read-out: Binding activity (IC50). The protocol: Human P2Y12 Receptor Cell Membrane Binding Assay with [^3H] 2-Mes-ADP
Whether test compounds bind to P2Y12 receptor is measured by [3H]-2MesADP binding in HEK cells expressing P2Y12 receptor. The efficacy according to the amount of test compound can be known through the above test, competitive binding test to P2Y12 receptor, in which the binding material (2-Mes-ADP) is labeled with radioactivity isotope and then the extent of inhibition against the binding of radioactively labeled material is measured.
Preparation of P2Y12 Membrane Protein Fraction
Harvested P2Y12 cells were resuspended with Hypotonic buffer (10 mM HEPES, 10 mM NaCl, 1 mM EDTA, 1 mM EGTA pH 7.4) containing protease inhibitor cocktail. Following the incubation on ice for 15 min, cells were homogenized on ice (Glass/Teflon homogenizer; 1,000 rpm, 10 strokes). The supernant was taken from centrifugation at 500×g for 15 min and then recentrifuged the supernant at 30,000 rpm for 30 min. The membrane pellet was adjusted to 1 mg/mL concentration and stored at −80° C.
P2Y12 Receptor Cell Membrane Binding Assay with [3H] 2-Mes-ADP
The volume of 100 μL of 200 μg membrane protein was aliquoted into 96 well plate. 50 μL volume of test compounds and [^3H] 2-Mes-ADP (final: 1 nM) were added into each well. The total reaction of 0.2 ml/well was incubated for 1 hour at R.T. The reaction was terminated by filtration through GF/B filter using a 96-well cell harvester. […] Radioactivity bound to P2Y12 receptor membrane was counted in a scintillation counter. Total binding was determined with CPM of test group having no compound and non-specific binding was determined with CPM of test group containing 10 μM 2-Mes-ADP. Binding inhibition percent was calculated as follows: [100−(specific binding in the presence of test material/specific binding in the absence of test material×100)].

pIC50: −log10 of the molar value.

T1 sequence (Q9H244 whole entry): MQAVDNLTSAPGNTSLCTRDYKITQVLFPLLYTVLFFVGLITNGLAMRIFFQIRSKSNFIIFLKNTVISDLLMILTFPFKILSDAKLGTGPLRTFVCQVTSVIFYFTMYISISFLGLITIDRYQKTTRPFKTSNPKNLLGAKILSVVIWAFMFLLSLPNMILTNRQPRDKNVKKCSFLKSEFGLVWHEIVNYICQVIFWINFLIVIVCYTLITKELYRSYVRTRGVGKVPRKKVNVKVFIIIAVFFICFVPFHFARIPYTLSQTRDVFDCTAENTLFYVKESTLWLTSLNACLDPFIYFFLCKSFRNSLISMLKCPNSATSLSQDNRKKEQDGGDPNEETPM

Regarding `CCCc1cc2c(N3CCn4c(nnc4C(F)(F)F)C3)nc(NCC(O)CO)nc2s1` (stereo not shown) [Example 1-2, 3-[6-Propyl-4-(3-trifluoromethyl-5,6-dihydro-8H-[1,2,4]triazolo[4,3-a]pyrazin-7-yl)-thieno[2,3-d]pyrimidin-2-ylamino]-propane-1,2-diol], the pIC50 is 6.80.

For `CCCc1cc2c(N3CCn4c(nnc4C(F)(F)F)C3)nc(N3CCc4[nH]ncc4C3)nc2s1` [Example 1-76, 7-[6-Propyl-2-(1,4,6,7-tetrahydro-pyrazolo[4,3-c]pyridin-5-yl)-thieno[2,3-d]pyrimidin-4-yl]-3-trifluoromethyl-5,6,7,8-tetrahydro-[1,2,4]triazolo[4,3-a]pyrazine], the pIC50 is 7.55.

As for `CCCc1cc2c(N3CCn4c(nnc4C(F)(F)F)C3)nc(N3CCc4c(nc(C)nc4C(F)(F)F)C3)nc2s1` [Example 1-80, 2-Methyl-7-[6-propyl-4-(3-trifluoromethyl-5,6-dihydro-8H-[1,2,4]triazolo[4,3-a]pyrazin-7-yl)-thieno[2,3-d]pyrimidin-2-yl]-4-trifluoromethyl-5,6,7,8-tetrahydro-pyrido[3,4-d]pyrimidine], the pIC50 was 7.37.

Take `CCCc1cc2c(N3CCn4c(nnc4C(F)(F)F)C3)nc(Nc3nc(C(=O)OCC)cs3)nc2s1` [Example 1-131, 2-[6-Propyl-4-(3-trifluoromethyl-5,6-dihydro-8H-[1,2,4]triazolo[4,3-a]pyrazin-7-yl)thieno[2,3-d]pyrimidin-2-ylamino]thiazole-4-carboxylic acid ethyl ester]: the pIC50 is 5.71.

With `Cc1cc2c(N3CCn4c(nnc4C(F)(F)F)C3)nc(N3CCNC(=O)C3)nc2s1` [Example 2-1, 4-[6-Methyl-4-(3-trifluoromethyl-5,6-dihydro-8H-[1,2,4]triazolo[4,3-a]pyrazin-7-yl)-thieno[2,3-d]pyrimidin-2-yl]-piperazin-2-one], the pIC50 was 5.96.

Consider `CCc1cc2c(N3CCn4c(nnc4C(F)(F)F)C3)nc(NCC(O)CO)nc2s1` (stereo not shown) [Example 2-3, 3-[6-Ethyl-4-(3-trifluoromethyl-5,6-dihydro-8H-[1,2,4]triazolo[4,3-a]pyrazin-7-yl)-thieno[2,3-d]pyrimidin-2-ylamino]-propane-1,2-diol], for which the pIC50 is 6.07.

Consider `CCc1cc2c(N3CCn4c(nnc4C(F)(F)F)C3)nc(N[C@@H]3C[C@H](OCCO)[C@@H](O)[C@H]3O)nc2s1` [Example 2-4, (1S,2S,3R,5S)-3-[6-Ethyl-4-(3-trifluoromethyl-5,6-dihydro-8H-[1,2,4]triazolo[4,3-a]pyrazin-7-yl)-thieno[2,3-d]pyrimidin-2-ylamino]-5-(2-hydroxy-ethoxy)-cyclopentane-1,2-diol], for which the pIC50 is 5.05.

For the compound `CCc1cc2c(N3CCn4c(nnc4C(F)(F)F)C3)nc(NCCN)nc2s1` [Example 2-8, N*1*-[6-Ethyl-4-(3-trifluoromethyl-5,6-dihydro-8H-[1,2,4]triazolo[4,3-a]pyrazin-7-yl)-thieno[2,3-d]pyrimidin-2-yl]-ethane-1,2-diamine], the pIC50 was 5.64.

For `CCc1cc2c(N3CCn4c(nnc4C(F)(F)F)C3)nc(NCC(=O)O)nc2s1` [Example 2-9, [6-Ethyl-4-(3-trifluoromethyl-5,6-dihydro-8H-[1,2,4]triazolo[4,3-a]pyrazin-7-yl)-thieno[2,3-d]pyrimidin-2-ylamino]-acetic acid], the pIC50 is 5.66.

Consider `CC(C)c1cc2c(N3CCn4c(nnc4C(F)(F)F)C3)nc(NCCO)nc2s1` [Example 2-11, 2-[6-Isopropyl-4-(3-trifluoromethyl-5,6-dihydro-8H-[1,2,4]triazolo[4,3-a]pyrazin-7-yl)-thieno[2,3-d]pyrimidin-2-ylamino]-ethanol], for which the pIC50 was 5.74.

Consider `CC(C)c1cc2c(N3CCn4c(nnc4C(F)(F)F)C3)nc(N3CCN(C)CC3)nc2s1` [Example 2-13, 7-[6-Isopropyl-2-(4-methyl-piperazin-1-yl)-thieno[2,3-d]pyrimidin-4-yl]-3-trifluoromethyl-5,6,7,8-tetrahydro-[1,2,4]triazolo[4,3-a]pyrazine], for which the pIC50 was 5.96.

With `CCCc1cc2c(N3CCn4c(nnc4C(F)(F)F)C3)nc(OC3Cc4ccccc4C3)nc2s1` [Example 3-22, 7-[2-(Indan-2-yloxy)-6-propyl-thieno[2,3-d]pyrimidin-4-yl]-3-trifluoromethyl-5,6,7,8-tetrahydro-[1,2,4]triazolo[4,3-a]pyrazine], the pIC50 is 6.89.

In the case of `CCc1cc2c(N3CCn4c(nnc4C(F)(F)F)C3)nc(OCC(O)CO)nc2s1` (stereo not shown) [Example 3-49, 3-[6-Ethyl-4-(3-trifluoromethyl-5,6-dihydro-8H-[1,2,4]triazolo[4,3-a]pyrazin-7-yl)-thieno[2,3-d]pyrimidin-2-yloxy]-propane-1,2-diol], the pIC50 was 6.39.

As to `CCCc1cc2c(N3CCn4c(nnc4C(F)(F)F)C3)nc(Sc3ccccc3)nc2s1` [Example 3-52, 7-(2-Phenylsulfanyl-6-propyl-thieno[2,3-d]pyrimidin-4-yl)-3-trifluoromethyl-5,6,7,8-tetrahydro-[1,2,4]triazolo[4,3-a]pyrazine], where the note is “30 μM compound”, the inhibition at 30 µM was 20%.

As for `CCCc1cc2c(N3CCn4c(nnc4C(F)(F)F)C3)nc(C(=O)OCC)nc2s1` [Example 4-1, 6-Propyl-4-(3-trifluoromethyl-5,6-dihydro-8H-[1,2,4]triazolo[4,3-a]pyrazin-7-yl)thieno[2,3-d]pyrimidine-2-carboxylic acid ethyl ester], the pIC50 was 6.62.

`CCCc1cc2c(N3CCn4c(nnc4C(F)(F)F)C3)nc(C(=O)O)nc2s1` [Example 4-2, 6-Propyl-4-(3-trifluoromethyl-5,6-dihydro-8H-[1,2,4]triazolo[4,3-a]pyrazin-7-yl)-thieno[2,3-d]pyrimidine-2-carboxylic acid]: the pIC50 is 5.52.

Turning to `CCc1cc2c(N3CCn4c(nnc4C(F)(F)F)C3)nc(C(=O)NCC(=O)O)nc2s1` [Example 4-4, {[6-Ethyl-4-(3-trifluoromethyl-5,6-dihydro-8H-[1,2,4]triazolo[4,3-a]pyrazin-7-yl)-thieno[2,3-d]pyrimidine-2-carbonyl]amino}acetic acid], the pIC50 is 6.00.

With `CCc1cc2c(N3CCn4c(nnc4C(F)(F)F)C3)nc(C(=O)NCCO)nc2s1` [Example 4-5, 6-Ethyl-4-(3-trifluoromethyl-5,6-dihydro-8H-[1,2,4]triazolo[4,3-a]pyrazin-7-yl)thieno[2,3-d]pyrimidine-2-carboxylic acid (2-hydroxy-ethyl)amide], the pIC50 is 5.80.

With `CCc1cc2c(N3CCn4c(nnc4C(F)(F)F)C3)nc(CN3CC[C@@H](O)C3)nc2s1` [Example 4-20, (R)-1-[6-Ethyl-4-(3-trifluoromethyl-5,6-dihydro-8H-[1,2,4]triazolo[4,3-a]pyrazin-7-yl)thieno[2,3-d]pyrimidin-2-ylmethyl]pyrrolidin-3-ol], the pIC50 is 5.38.

Turning to `CCc1nc2c(N3CCn4c(nnc4C(F)(F)F)C3)nc(N3CCNC(=O)C3)nc2s1` [Example 5-1, 4-[2-Ethyl-7-(3-trifluoromethyl-5,6-dihydro-8H-[1,2,4]triazolo[4,3-a]pyrazin-7-yl)-thiazolo[5,4-d]pyrimidin-5-yl]-piperazin-2-one], the pIC50 is 6.17.

For `CCc1nc2c(N3CCn4c(nnc4C(F)(F)F)C3)nc(NCCO)nc2s1` [Example 5-2, 2-[2-Ethyl-7-(3-trifluoromethyl-5,6-dihydro-8H-[1,2,4]triazolo[4,3-a]pyrazin-7-yl)-thiazolo[5,4-d]pyrimidin-5-ylamino]-ethanol], the pIC50 was 5.63.

As for `CCc1nc2c(N3CCn4c(nnc4C(F)(F)F)C3)nc(N3CCN(C)CC3)nc2s1` [Example 5-3, 2-Ethyl-5-(4-methyl-piperazin-1-yl)-7-(3-trifluoromethyl-5,6-dihydro-8H-[1,2,4]triazolo[4,3-a]pyrazin-7-yl)-thiazolo[5,4-d]pyrimidine], the pIC50 was 5.94.

For the compound `CCc1cc2c(N3CCn4c(nnc4C(F)(F)C(F)(F)F)C3)nc(N3CCNC(=O)C3)nc2s1` [Example 6-1, 4-[6-Ethyl-4-(3-pentafluoroethyl-5,6-dihydro-8H-[1,2,4]triazolo[4,3-a]pyrazin-7-yl)-thieno[2,3-d]pyrimidin-2-yl]-piperazin-2-one], the pIC50 is 6.88.

Turning to `CCc1cc2c(N3CCn4c(nnc4C(F)(F)C(F)(F)F)C3)nc(NCC(O)CO)nc2s1` (stereo not shown) [Example 6-2, 3-[6-Ethyl-4-(3-pentafluoroethyl-5,6-dihydro-8H-[1,2,4]triazolo[4,3-a]pyrazin-7-yl)-thieno[2,3-d]pyrimidin-2-ylamino]-propane-1,2-diol], the pIC50 is 5.92.

For `CCc1cc2c(N3CCn4cnnc4C3)nc(N3CCNC(=O)C3)nc2s1` [Example 6-10, 4-[4-(5,6-Dihydro-8H-[1,2,4]triazolo[4,3-a]pyrazin-7-yl)-6-ethyl-thieno[2,3-d]pyrimidin-2-yl]-piperazin-2-one], the pIC50 is 5.15.
